Measurements from patent US20200131129A1, “FARNESOID X RECEPTOR AGONISTS AND USES THEREOF” (Metacrine, Inc., priority 2017, published 2020).

Molecular target: T1, hFXR (Homo sapiens, UniProt Q96RI1)
T1 construct: expressed in transfected cells; host or cells: CV-1 cells
T1 sequence (Q96RI1 1-486): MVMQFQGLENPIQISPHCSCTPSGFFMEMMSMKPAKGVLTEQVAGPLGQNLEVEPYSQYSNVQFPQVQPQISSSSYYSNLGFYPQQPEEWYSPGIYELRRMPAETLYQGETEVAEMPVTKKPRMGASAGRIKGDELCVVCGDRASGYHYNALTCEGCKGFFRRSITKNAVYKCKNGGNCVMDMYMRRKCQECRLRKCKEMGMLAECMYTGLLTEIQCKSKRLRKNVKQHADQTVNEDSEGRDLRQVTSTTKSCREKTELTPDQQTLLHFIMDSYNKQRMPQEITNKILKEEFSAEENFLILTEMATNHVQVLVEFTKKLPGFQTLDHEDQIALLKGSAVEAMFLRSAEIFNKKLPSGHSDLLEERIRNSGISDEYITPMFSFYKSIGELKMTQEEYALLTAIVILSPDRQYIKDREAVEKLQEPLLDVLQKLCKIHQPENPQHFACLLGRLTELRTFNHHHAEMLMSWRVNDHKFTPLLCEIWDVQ
T1 sequence (P19793 1-462 partner): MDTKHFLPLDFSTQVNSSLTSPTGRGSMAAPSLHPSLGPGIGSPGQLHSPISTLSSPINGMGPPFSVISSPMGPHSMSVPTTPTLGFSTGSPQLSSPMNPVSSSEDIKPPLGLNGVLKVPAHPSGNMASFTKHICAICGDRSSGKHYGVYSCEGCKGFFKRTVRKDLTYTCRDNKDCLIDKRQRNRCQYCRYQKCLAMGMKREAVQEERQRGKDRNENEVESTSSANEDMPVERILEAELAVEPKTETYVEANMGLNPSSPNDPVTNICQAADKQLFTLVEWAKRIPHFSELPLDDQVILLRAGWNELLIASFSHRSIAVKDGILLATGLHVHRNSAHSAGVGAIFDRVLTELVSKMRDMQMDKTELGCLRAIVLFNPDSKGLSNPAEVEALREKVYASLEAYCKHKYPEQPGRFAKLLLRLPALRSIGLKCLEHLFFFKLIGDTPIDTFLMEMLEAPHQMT
Experiment: In Vitro FXR Assay (TK): hFXR/hRXR TK-ECRE-luc reporter in transfected CV-1 cells
Format: cell-based
Details: CV-1 cells transfected with hFXR, hRXR, 18 hrs incubation, luminescence, maximum efficacy <25% of Fexarmine control also classified as ‘+’
Outline: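 CV-1 cells in charcoal-stripped serum were transiently transfected with hFXR, hRXR, TK-ECRE-luc reporter and pCMX-YFP plasmids for 18 h at 37 °C. Serially diluted compounds were added for 18 h, then cells were lysed and luciferase luminescence read.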

Compound	EC50
COc1ccc([C@H]2CC[C@H](CN(c3cccc(-c4cnc(N(C)C)nc4)c3)C(=O)[C@H]3CC[C@H](O)CC3)CC2)cc1C [Compound 1.09, trans-N-(3-(2-(Dimethylamino)pyrimidin-5-yl)phenyl)-4-hydroxy-N-((trans-4-(4-methoxy-3-methylphenyl)cyclohexyl)methyl)cyclohexanecarboxamide]	≤ 500 nM
COc1ccc([C@H]2CC[C@H](CN(c3cccc(-c4cc(C5CC5)no4)c3)C(=O)[C@H]3CC[C@H](O)CC3)CC2)cc1C [Compound 9.13, trans-N-(3-(3-cyclopropylisoxazol-5-yl)phenyl)-4-hydroxy-N-((trans-4-(4-methoxy-3-methylphenyl)cyclohexyl)methyl) cyclohexanecarboxamide]	≤ 500 nM
CN(C)c1ccc(C23CCC(CN(c4cccc(-c5coc(C6CC6)n5)c4)C(=O)[C@H]4CC[C@H](O)CC4)(CC2)CC3)cn1 [Compound 10.03, trans-N-(3-(2-Cyclopropyloxazol-4-yl)phenyl)-N-((4-(6-(dimethylamino)pyridine-3-yl)bicyclo[2.2.2]octan-1-yl)methyl)-4-hydroxycyclohexanecarboxamide]	≤ 500 nM
COc1ccc([C@H]2CC[C@H](CN(c3cc(-c4coc(C5CC5)n4)ccn3)C(=O)[C@H]3CC[C@H](O)CC3)CC2)cc1C [Compound 10.07, trans-N-(4-(2-Cyclopropyloxazol-4-yl)pyridine-2-yl)-4-hydroxy-N-((trans-4-(4-methoxy-3-methylphenyl)cyclohexyl)methyl) cyclohexanecarboxamide]	≤ 500 nM
COc1ccc([C@H]2CC[C@H](CN(c3cccc(-c4ccc(N(C)C)nc4)c3)C(=O)[C@H]3CC[C@H](O)CC3)CC2)cc1C [Compound 1, trans-N-(3-(6-(Dimethylamino)pyridine-3-yl)phenyl)-4-hydroxy-N-((trans-4-(4-methoxy-3-methylphenyl)cyclohexyl)methyl)cyclohexanecarboxamide]	≤ 500 nM
COc1ccc([C@H]2CC[C@H](CN(c3cccc(-c4cc(C)on4)c3)C(=O)[C@H]3CC[C@H](O)CC3)CC2)cc1C [Compound 9.08, trans-4-Hydroxy-N-((trans-4-(4-methoxy-3-methylphenyl)cyclohexyl)methyl)-N-(3-(5-methylisoxazol-3-yl)phenyl)cyclohexanecarboxamide]	≤ 500 nM
COc1ccc([C@H]2CC[C@H](CN(c3cccc(-c4ccc(C(F)(F)F)nc4)c3)C(=O)[C@H]3CC[C@H](O)CC3)CC2)cc1C [Compound 1.04, trans-4-Hydroxy-N-((trans-4-(4-methoxy-3-methylphenyl)cyclohexyl)methyl)-N-(3-(6-(trifluoromethyl)pyridine-3-yl)phenyl)cyclohexanecarboxamide]	≤ 500 nM
COc1ccc([C@H]2CC[C@H](CN(c3cccc(-n4cnc(C)n4)c3)C(=O)[C@H]3CC[C@H](O)CC3)CC2)cc1C [Compound 7, trans-4-Hydroxy-N-((trans-4-(4-methoxy-3-methylphenyl)cyclohexyl)methyl)-N-(3-(3-methyl-1-1,2,4-triazol-1-yl)phenyl)cyclohexanecarboxamide]	500 to 1000 nM
COc1ccc([C@H]2CC[C@H](CN(c3cccc(C#Cc4nnn(C)n4)c3)C(=O)[C@H]3CC[C@H](O)CC3)CC2)cc1C [Compound 11.03, trans-4-Hydroxy-N-((trans-4-(4-methoxy-3-methylphenyl)cyclohexyl)methyl)-N-(3-((2-methyl-2H-tetrazol-5-yl)ethynyl)phenyl) cyclohexanecarboxamide]	≤ 500 nM
COc1ccc([C@H]2CC[C@H](CN(c3cccc(C#Cc4cn[nH]n4)c3)C(=O)[C@H]3CC[C@H](O)CC3)CC2)cc1C [Compound 14.01, trans-N-(3-((2H-1,2,3-Triazol-4-yl)ethynyl)phenyl)-4-hydroxy-N-((trans-4-(4-methoxy-3-methylphenyl)cyclohexyl)methyl) cyclohexanecarboxamide]	≤ 500 nM
Cn1ccc2cc([C@H]3CC[C@H](CN(c4cccc(-c5coc(C6CC6)n5)c4)C(=O)[C@H]4CC[C@H](O)CC4)CC3)ncc21 [Compound 10.21]	500 to 1000 nM
COc1ccc([C@H]2CC[C@H](CN(c3cccc(-c4ccc(N5CCCC5)nc4)c3)C(=O)[C@H]3CC[C@H](O)CC3)CC2)cc1C [Compound 1.10, trans-4-Hydroxy-N-((trans-4-(4-methoxy-3-methylphenyl)cyclohexyl)methyl)-N-(3-(6-(pyrrolidin-1-yl)pyridine-3-yl)phenyl)cyclohexanecarboxamide]	≤ 500 nM
COc1ccc([C@H]2CC[C@H](CN(c3cccc(C#Cc4cn(C)nn4)c3)C(=O)[C@H]3CC[C@H](O)CC3)CC2)cc1C [Compound 12.02, trans-4-Hydroxy-N-((trans-4-(4-methoxy-3-methylphenyl)cyclohexyl)methyl)-N-(3-((1-methyl-1H-1,2,3-triazol-4-yl)ethynyl)phenyl)cyclohexanecarboxamide]	≤ 500 nM
COc1ccc([C@H]2CC[C@@H](CN(c3cccc(-c4coc(C5CC5)n4)c3)C(=O)[C@H]3CC[C@H](O)CC3)CC2)nc1C [Compound 10.10, trans-N-(3-(2-Cyclopropyloxazol-4-yl)phenyl)-4-hydroxy-N-((cis-4-(5-methoxy-6-methylpyridin-2-yl)cyclohexyl)methyl) cyclohexanecarboxamide]	≥ 1000 nM
COc1ccc(C23CCC(CN(c4cccc(-c5cc(C6CC6)ns5)c4)C(=O)[C@H]4CC[C@H](O)CC4)(CC2)CC3)cc1C [Compound 10.01, trans-N-(3-(3-Cyclopropylisothiazol-5-yl)phenyl)-4-hydroxy-N-((4-(4-methoxy-3-methylphenyl)bicyclo[2.2.2]octan-1-yl)methyl)cyclohexanecarboxamide]	≤ 500 nM
COc1ccc([C@H]2CC[C@H](CN(c3cccc(-c4cnc(C5CC5)o4)c3)C(=O)[C@H]3CC[C@H](O)CC3)CC2)cc1C [Compound 9.12, trans-N-(3-(2-Cyclopropyloxazol-5-yl)phenyl)-4-hydroxy-N-((trans-4-(4-methoxy-3-methylphenyl)cyclohexyl)methyl) cyclohexanecarboxamide]	≤ 500 nM
COc1ccc([C@H]2CC[C@H](CN(c3cc(-c4coc(C5CC5)n4)ccn3)C(=O)[C@H]3CC[C@H](O)CC3)CC2)nc1C#N [Compound 10.19, trans-N-((trans-4-(6-Cyano-5-methoxypyridin-2-yl)cyclohexyl)methyl)-N-(4-(2-cyclopropyloxazol-4-yl)pyridine-2-yl)-4-hydroxycyclohexanecarboxamide]	≤ 500 nM
COc1ccc([C@H]2CC[C@H](CN(c3cccc(-n4cnc(C)c4)c3)C(=O)[C@H]3CC[C@H](O)CC3)CC2)cc1C [Compound 9.01, trans-4-Hydroxy-N-((trans-4-(4-methoxy-3-methylphenyl)cyclohexyl)methyl)-N-(3-(4-methyl-1H-imidazol-1-yl)phenyl)cyclohexanecarboxamide]	500 to 1000 nM
COc1ccc([C@H]2CC[C@H](CN(c3cccc(-n4cc(C)nn4)c3)C(=O)[C@H]3CC[C@H](O)CC3)CC2)cc1C [Compound 9.09, trans-4-Hydroxy-N-((trans-4-(4-methoxy-3-methylphenyl)cyclohexyl)methyl)-N-(3-(4-methyl-1H-1,2,3-triazol-1-yl)phenyl)cyclohexanecarboxamide]	≥ 1000 nM
COc1ccc([C@H]2CC[C@H](CN(c3cccc(-c4cc(C5CC5)ns4)c3)C(=O)[C@H]3CC[C@H](O)CC3)CC2)cc1C [Compound 9, trans-N-(3-(3-Cyclopropylisothiazol-5-yl)phenyl)-4-hydroxy-N-((trans-4-(4-methoxy-3-methylphenyl)cyclohexyl)methyl)cyclohexanecarboxamide]	≤ 500 nM
COc1ccc([C@H]2CC[C@H](CN(c3cccc(-c4coc(C5CC5)n4)c3)C(=O)[C@H]3CC[C@H](O)CC3)CC2)nc1C [Compound 10.06, trans-N-(3-(2-Cyclopropyloxazol-4-yl)phenyl)-4-hydroxy-N-((trans-4-(5-methoxy-6-methylpyridin-2-yl)cyclohexyl)methyl) cyclohexanecarboxamide]	≤ 500 nM
